Measured values reported in US11549198B2, “Method of producing non-woven protein fibers” (Rowan University, priority 2017, dated 2023).

Assay: Drug release study of model drugs from corn zein fibers and films in phosphate buffer
Assay type: physicochemical
Conditions: for n value from the Korsmeyer-Peppas equation of model drug release profile / release percentage at the 15-minute time point: 20 mM phosphate buffer (pH 7.0); for n value from the Korsmeyer-Peppas equation of model drug release profile: up to 96 hours; for release percentage at the 15-minute time point: fibers
Experimental: Approximately 0.05 g of film or fiber mesh was placed in 50 mL of 20 mM phosphate buffer (pH 7.0). Drug release was done in triplicate under conditions of dynamic flow. At the appropriate time points (15 minutes, 30 minutes, 1 hour, 2 hours, 3 hours, 4 hours, 5 hours, 24 hours, 48 hours, 96 hours), aliquots of solution were removed from the samples. The absorbance of each aliquot was measured at the appropriate wavelength for the corresponding model drug using a SpectraMax i3x Plate Reader (Molecular Devices LLC, Sunnyvale, Calif., USA). Absorbance was related to concentration and the values from the three aliquots were averaged and graphed as a function of time. Upon completion of the study, fibers were extracted from solution via suction filtration and dried overnight. Release profiles were then fit with the Krosmeyer-Peppas release model shown in equation 1: […]
To further investigate the potential effectiveness of the supramolecular systems for transdermal drug delivery, drug release of the model drugs incorporated in either films or fibers was simulated in 0.1% w/v 20 mM phosphate buffer (pH 7.0) for different times. Shown in FIGS. 16A-16B are the normalized release profiles for the fiber and film models, respectively. Data points were normalized based on the amount of drug released at 96 hours. No significant drug release was observed above 96 hours for all samples. […] Alcian blue is a very large molecule (MW 1.3 kDa), so it is reasonable to assume its bulkiness prevents it from being efficiently integrated into the zein structure. […] This can be attributed to the nature of the method used to fabricate the films. The corn zein was exposed to formic acid for a longer period of time during film synthesis than during fiber generation. During this time, the formic acid may have severed some of the hydrogen bonds of the corn zein structure, allowing the integration of the model drug molecules.

Row | SMILES | n value from the Korsmeyer-Peppas equation of model drug release profile (Fiber) | n value from the Korsmeyer-Peppas equation of model drug release profile (Film) | release percentage at the 15-minute time point | release profile at the earlier points (films, in contrast to the fibers)
1 | O=C1/C(=C2\Nc3ccc(S(=O)(=O)[O-])cc3C2=O)Nc2ccc(S(=O)(=O)[O-])cc21.[Na+].[Na+] [Indigo Carmine, indigo carmine] | 0.1318 | 0.430 | considerably high release percentage | dramatic drop
2 | CN(C)c1ccc(C(=C2C=CC(=[N+](C)C)C=C2)c2ccc(N(C)C)cc2)cc1 [Crystal Violet, Crystal violet] | 0.353 | 0.1184 | – | –
3 | CN(C)C(SCc1ccc2c(c1)-c1nc-2nc2[n-]c(nc3nc(nc4[n-]c(n1)c1ccc(CSC(N(C)C)=[N+](C)C)cc41)-c1ccc(CSC(N(C)C)=[N+](C)C)cc1-3)c1ccc(CSC(N(C)C)=[N+](C)C)cc21)=[N+](C)C.[Cl-].[Cl-].[Cl-].[Cl-].[Cu+2] [Alcian Blue, alcian blue 8GX] | 0.1104 | 0.1507 | considerably high release percentage | –

The remaining lines, values ahead:

Row | n value from the Korsmeyer-Peppas equation of model drug release profile (Fiber) | n value from the Korsmeyer-Peppas equation of model drug release profile (Film) | release percentage at the 15-minute time point | release profile at the earlier points (films, in contrast to the fibers) | SMILES
4 | 0.392 | 0.284 | – | – | CO[C@H]1/C=C/O[C@@]2(C)Oc3c(C)c(O)c4c(O)c(c(/C=N/N5CCN(C)CC5)c(O)c4c3C2=O)NC(=O)/C(C)=C\C=C\[C@H](C)[C@H](O)[C@@H](C)[C@@H](O)[C@@H](C)[C@H](OC(C)=O)[C@@H]1C [Rifampin, rifampin]
5 | 0.337 | 0.203 | – | – | CCN(CC)c1ccc2c(-c3ccccc3C(=O)O)c3ccc(=[N+](CC)CC)cc-3oc2c1.[Cl-] [Rhodamine B, rhodamine B]
